In brackets after ≈: the same amount, converted by molar mass. Several values for one entry are separate records, joined by “and”; a condition that tells them apart may be missing. Equal entries are not always repeated. Structures can show the parent of a compound that is named as a salt. Where two headings read alike, the source gives them in different places. A value given as a limit tells only on which side of the number the result lay.

One assay deals with A431. The assay is described as follows: Inhibition of cancer cell growth as measured by cell number, A431.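 For all read-outs here: human A431 line, picked because it overexpresses epidermal growth factor receptor (EGFR).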 The class given is cell-based, human. The settings on record: Table 8; for IC50: Homo sapiens, A-431, 48 h.
Another assay relates to SKBR3. Description: Inhibition of cancer cell growth as measured by cell number, SKBR3.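 For all read-outs here: SK-BR-3 cells were selected as a line overexpressing HER2/neu.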 In kind it is cell-based, human. The settings on record: Table 8; for IC50: Homo sapiens.
Assay [1] deals with T1, His-tagged cytoplasmic domain of EGFR (Homo sapiens, UniProt P00533).
T1 construct: containing the EGFR cDNA encoding amino acids 645 - 1186 preceded by Met-Ala-(His)6; made in house; host or cells: Sf9 cells, recombinant baculovirus vHcEGFR52
Description: Inhibition of Epidermal Growth Factor Receptor Kinase (EGF-R) using recombinant enzyme.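 Note: radiometric kinase assay measuring radiolabeled phosphate transfer from ATP onto the peptide tyrosine by scintillation counting, control is reaction without compound, background subtracted, IC50 from dose-response curve.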 In kind it is biochemical.
Description: The enzyme used in this assay is the His-tagged cytoplasmic domain of EGFR.
Compounds to be evaluated were made into 10 mg/mL stock solutions in 100% dimethylsulfoxide (DMSO). Prior to experiment, stock solutions were diluted to 500 µM with 100% DMSO and then serially diluted to the desired concentration with HEPES buffer (30 mM HEPES pH 7.4).
For the enzyme reaction, 10 µL of each inhibitor (at various concentrations) were added to each well of a 96-well plate. […] This was allowed to sit for 10 min on ice and was followed by the addition of 5 µl peptide (80 µM final conc.), 10µl of 4X Buffer (Table A), 0.25 µL ^33P-ATP and 12 µL H2O. The reaction was allowed to run for 90 min at room temperature and was followed by spotting the entire volume on to precut P81 filter papers. The filter discs were washed 2X with 0.5% phosphoric acid and radioactivity was measured using a liquid scintillation counter.
The % inhibition of the test compound was determined for at least three different concentrations and the IC50 value was evaluated from the dose response curve. […] CPM(control) is in units of counts per minute and was a number expressing the amount of radiolabeled ATP (g-33P) incorporated into the RR-SRC peptide substrate by the enzyme after 90 minutes at room temperature in the absence of test compound as measured by liquid scintillation counting. The CPM values were corrected for the background counts produced by ATP in the absence of the enzymatic reaction. The IC50 values reported in TABLE 2 are averages of the number of tests conducted.

A further assay deals with SW620. Description: Inhibition of cancer cell growth as measured by cell number, SW620.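 For all read-outs here: SW620 was included as a cell line with little or no EGFR or HER2/neu expression, in contrast to receptor-overexpressing lines.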 The class given is cell-based, human. The note with it: Table 8; for IC50: Homo sapiens, SW-620, 48 h.
The target of assay [2] is recombinant human MEK 1 (MAPKK) and recombinant human ERK2 (MAPK). Description: Mitogen Activated Protein Kinase (MAPK) assay, two component coupled MEK 1 / ERK2.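 Note: MEK 1-activated ERK2 phosphorylates MBP or Myc peptide with 33P-ATP, filter capture and scintillation counting, inhibitor preincubated with ERK2 30 min at 0 °C, inhibition relative to uninhibited control.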 In kind it is biochemical. The note with it: separate entries for the same compound = evaluated more than one time.
The mark [3] stands for this setting: cell number, Sulforhodamine B, 48 hours exposure.
[4] abbreviates: recombinant enzyme, RR-SRC peptide, average of the number of tests, read-out: IC50.
Setting [5] is: cell number, Sulforhodamine B, 48 hours exposure, read-out: IC50 SW620.
The mark [6] stands for this setting: cell number, Sulforhodamine B, 48 hours exposure, read-out: IC50 A431.
Where [7] appears, read: SK-BR-3, cell number, Sulforhodamine B, 48 hours exposure, read-out: IC50 SKBR3.
Where [8] appears, read: read-out: IC50 SW620, cell number, Sulforhodamine B, 48 hours exposure.
Where [9] appears, read: read-out: IC50 A431, cell number, Sulforhodamine B, 48 hours exposure.
Setting [10] is: SK-BR-3, 48 h, read-out: IC50 SKBR3, cell number, Sulforhodamine B, 48 hours exposure.

Description for A431: (§1) The cell lines were chosen since they overexpressed epidermal growth factor receptor (EGFR) (i.e. A431) or HER2/neu (SKBR3), or had little to no expression of the these receptors (SW620, LOX, MCF7).
Description for SKBR3: as §1
Description for SW620: as §1

The IC50 is the concentration at which inhibition is half-maximal. Turning to “4-Dimethylamino-but-2-enoic acid [4-(3-bromophenylamino)-3-cyano-quinolin-6-yl]-amide [Example 99]”, the “IC50 A431” value in the assay on A431 (setting [3]) was 0.3 mg/L and 0.159 mg/L. Moreover, the “IC50 SKBR3” value with SKBR3 (setting [3]) was 0.1 mg/L and 0.078 mg/L. Moreover, the IC50 in assay [1] (setting [4]) came out at 30 nM.

Regarding `CCOc1cc2ncc(C#N)c(NCc3ccc(OC)c(OC)c3)c2cc1OCC` [Example 63, 4-(3,4-Dimethoxyphenylmethylamino)-6,7-diethoxy-3-quinolinecarbonitrile], the IC50 in the assay with SW620 (setting [5]) is 0.208 mg/L (≈ 0.51 µM); with A431 (setting [6]), 0.095 mg/L (≈ 0.233 µM); with SKBR3 (setting [7]), 0.144 mg/L (≈ 0.353 µM); in assay [2], above 100000 nM; in assay [1] (setting [4]), at least 10000 nM.

As for `CNCC=CC(=O)Nc1ccc2ncc(C#N)c(Nc3cccc(Br)c3)c2c1` [Example 101, 4-Methylamino-but-2-enoic acid [4-(3-bromophenylamino)-3-cyano-quinolin-6-yl]-amide], the IC50 is above 10 mg/L in the assay with SW620 (setting [5]); above 10 mg/L with A431 (setting [6]); above 10 mg/L with SKBR3 (setting [7]); 20000 nM in assay [2]; 100 nM in assay [1] (setting [4]).

For `N#Cc1cnc2ccc(N)cc2c1Nc1cccc(I)c1` [Example 130, 6-Amino-4-[(3-iodophenyl)amino]-3-quinolinecarbonitrile], the IC50 in assay [2] was above 100000 nM; in assay [1] (setting [4]), 100 nM.

As for `CC#CC(=O)Nc1ccc2ncc(C#N)c(Nc3cccc(C)c3)c2c1` [Example 132, N-{3-Cyano-4-[(3-methylphenyl)amino]-6-quinolinyl}-2-butynamide], the figures for the IC50 in assay [2] and in assay [1] (setting [4]) were above 100000 nM and 600 nM, respectively.

As to `Cc1cccc(Nc2c(C#N)cnc3ccc(N)cc23)c1` [Example 133, 6-Amino-4-[(3-methylphenyl)amino]-3-quinolinecarbonitrile], the half-inhibitory concentration (IC50) in assay [2] is above 100000 nM; in assay [1] (setting [4]) it was 6 nM.

For `CC#CC(=O)Nc1ccc2ncc(C#N)c(Nc3cccc(OC)c3)c2c1` [Example 139, N-{3-Cyano-4-[(3-methoxyphenyl)amino]-6-quinolinyl}-2-butynamide], the IC50 in assay [2] came to 35000 nM; in assay [1] (setting [4]) it was 500 nM.

In the case of `COc1cccc(Nc2c(C#N)cnc3ccc(NC(=O)C#CCN4CCCCC4)cc23)c1` [Example 140, N-{3-cyano-4-[(3-methoxyphenyl)amino]-6-quinolinyl}-4-piperidino-2-butynamide], the IC50 with SW620 (setting [8]) was 0.1 mg/L (≈ 0.228 µM); with A431 (setting [9]) it was 0.02 mg/L (≈ 0.0455 µM); with SKBR3 (setting [10]), 0.02 mg/L (≈ 0.0455 µM); in assay [2] it was above 100000 nM; in assay [1] (setting [4]), 0.6 nM.

For the compound `CC#CC(=O)Nc1ccc2ncc(C#N)c(Nc3ccc(F)c(Cl)c3)c2c1` [Example 143, N-{4-[(3-Chloro-4-fluoro-phenyl)amino]-3-cyano-6-quinolinyl}-2-butynamide], the IC50 in assay [2] worked out at 40000 nM; in assay [1] (setting [4]), 30 nM.

Take `C=CC(=O)Nc1ccc2ncc(C#N)c(Nc3ccc(F)c(Cl)c3)c2c1` [Example 144, N-{4-[(3-Chloro-4-fluorophenyl)amino]-3-cyano-6-quinolinyl}-2-propenamide]: the IC50 in assay [2] amounted to 40000 nM; in assay [1] (setting [4]) it was 65 nM.

As for `CCN(CC)CC=CC(=O)Nc1ccc2ncc(C#N)c(Nc3ccc(F)c(Cl)c3)c2c1` [Example 146, N-{4-[(3-Chloro-4-fluorophenyl)amino]-3-cyano-6-quinoliny}-4-diethylamino-2-butenamide], the IC50 with SW620 (setting [5]) was determined as 0.6 mg/L (≈ 1.33 µM); with A431 (setting [6]), 0.03 mg/L (≈ 0.0664 µM); with SKBR3 (setting [7]), 0.03 mg/L (≈ 0.0664 µM); in assay [2], 6000 nM; in assay [1] (setting [4]) it was 30 nM.

On to `CC#CC(=O)Nc1ccc2ncc(C#N)c(Nc3ccc(Sc4ccccc4)c(Cl)c3)c2c1` [Example 157], for which the IC50 in the assay with SW620 (setting [8]) was determined as 4.17 mg/L (≈ 8.89 µM); in the assay with A431 (setting [9]) it was 3.26 mg/L (≈ 6.95 µM); in the assay with SKBR3 (setting [10]) it was 2.6 mg/L (≈ 5.55 µM); in assay [2], 90000 nM; in assay [1] (setting [4]) it was 45 nM.

With `CCN(CC)CC=CC(=O)Nc1ccc2ncc(C#N)c(Nc3ccc(F)c(Br)c3)c2c1` [Example 173, N-{4-[(3-Bromo-4-fluorophenyl)amino]-3-cyano-6-quinolinyl}-4-diethylamino-2-butenamide], the values for the IC50 in assay [2] and in assay [1] (setting [4]) were 8000 nM and 30 nM, respectively.

Regarding `COc1cc2ncc(C#N)c(Nc3ccc(F)c(Br)c3)c2cc1NC(=O)C=CCN1CCOCC1` [Example 175, N-{4-[(3-Bromo-4-fluorophenyl)amino]-3-cyano-7-methoxy-6-quinolinyl}-4-morpholino-2-butenamide], the IC50 with SW620 (setting [8]) is 4.95 mg/L (≈ 9.16 µM); with A431 (setting [9]), 0.144 mg/L (≈ 0.266 µM); in the assay with SKBR3 (setting [10]), 0.18 mg/L (≈ 0.333 µM); in assay [1] (setting [4]) it was 300 nM.

For the compound `CN(C)C/C=C\C(=O)Nc1ccc2ncc(C#N)c(Nc3ccc(F)c(Cl)c3)c2c1` [Example 184, N-[4-[(3-Chloro-4-fluorophenyl)amino]-3-cyano-6-quinolinyl]-4-dimethylamino-(Z)-2-butenamide], the IC50 is 0.463 mg/L (≈ 1.09 µM) with SW620 (setting [8]), 0.158 mg/L (≈ 0.373 µM) with A431 (setting [9]), 0.3 mg/L (≈ 0.708 µM) in the assay on SKBR3 (setting [10]) and 1700 nM in assay [1] (setting [4]).

Take `COC/C=C\C(=O)Nc1ccc2ncc(C#N)c(Nc3ccc(F)c(Cl)c3)c2c1` [Example 185, N-[4-[(3-Chloro-4-fluorophenyl)amino]-3-cyano-6-quinolinyl]-4-methoxy-(Z)-2-butenamide]: the IC50 in the assay on SW620 (setting [5]) is 2.18 mg/L (≈ 5.31 µM); with A431 (setting [6]), 0.34 mg/L (≈ 0.828 µM); in the assay on SKBR3 (setting [7]), 1.11 mg/L (≈ 2.7 µM); in assay [1] (setting [4]), at least 10000 nM.

Turning to `COc1cc2ncc(C#N)c(Nc3cccc(Br)c3)c2cc1NC(=O)C=CCN(C)C` [Example 198, 4-Dimethylamino-but-2-enoic acid [4-(3-brom-phenylamino)-3-cyano-7-methoxy-quinolin-6yl]-amide], the “IC50 SW620” value in the assay on SW620 (setting [3]) came out at 0.4 mg/L (≈ 0.833 µM). Further, the “IC50 A431” value in the assay on A431 (setting [3]) was determined as 0.002 mg/L (≈ 0.00416 µM). In the assay with SKBR3 (setting [3]), the “IC50 SKBR3” value turned out to be 0.03 mg/L (≈ 0.0625 µM). Besides, the IC50 in assay [1] amounted to 0.008 nM.

Regarding `CCN(CC)CC=CC(=O)Nc1cc2c(Nc3cccc(Br)c3)c(C#N)cnc2cc1OC` [Example 199, 4-Diethylamino-but-2-enoic acid [4-(3-bromo-phenylamino)-3-cyano-7-methoxy-quinolin-6-yl]-amide], the IC50 in the assay with SW620 (setting [5]) stood at 0.433 mg/L (≈ 0.852 µM); with A431 (setting [6]), 0.048 mg/L (≈ 0.0944 µM); in the assay with SKBR3 (setting [7]) it was 0.076 mg/L (≈ 0.149 µM); in assay [1] (setting [4]), 0.5 nM.

Take `COc1cc2ncc(C#N)c(Nc3cccc(Br)c3)c2cc1NC(=O)C#CCN(C)C` [Example 227, 4-Dimethylamino-but-2-ynoic acid [4-(3-bromo-phenylamino)-3-cyano-7-methoxy-quinol-6-yl]-amide]: the IC50 in the assay on SW620 (setting [8]) is 0.1 mg/L (≈ 0.209 µM); in the assay on A431 (setting [9]), 0.02 mg/L (≈ 0.0418 µM); in the assay on SKBR3 (setting [10]), 0.2 mg/L (≈ 0.418 µM); in assay [1] (setting [4]), 10 nM.

As for `COc1cc2ncc(C#N)c(Nc3cccc(N)c3)c2cc1OC` [Example 264, 4-(3-Aminophenylamino)-6,7-dimethoxy-3-quinolinecarbonitrile], the values for the IC50 in assay [2] and in assay [1] (setting [4]) were 3000 nM and 500 nM, respectively.

Take `COc1cc2ncc(C#N)c(Nc3cccc(CS)c3)c2cc1OC` [Example 270]: the IC50 is above 100000 nM in assay [2] and 10 nM in assay [1] (setting [4]).

With `COc1cc2c(Nc3cccc(Br)c3)c(C#N)cnc2cc1OCCCN1CCOCC1` [Example 313, 4-(3-Bromo-phenylamino)-6-methoxy-7-(3-morpholin-4-yl-propoxy)-quinoline-3-carbonitrile], the figures for the IC50 in assay [2] and in assay [1] (setting [4]) were above 100000 nM and 400 nM, respectively.

For the compound `N#Cc1cnc2ccc(NC(=O)/C=C/Cl)cc2c1Nc1cccc(Br)c1` [Example 326, N-[4-(3-Bromo-phenylamino)-3-cyano-quinolin-6-yl]-3-chloro-(E) acrylamide], the results for the IC50 in assay [2] and in assay [1] (setting [4]) were 35000 nM and 0.05 nM, respectively.

Consider `N#Cc1cnc2ccc(NC(=O)/C=C\Cl)cc2c1Nc1cccc(Br)c1` [Example 327, N-[4-(3-Bromo-phenylamino)-3-cyano-quinolin-6-yl]-3-chloro-(Z)-acrylamide], for which the IC50 in assay [1] (setting [4]) was determined as 10 nM.

With `COc1cc2ncc(C#N)c(Nc3cccc(Br)c3)c2cc1NC(=O)C=CCCl` [Example 347, N-{4-[(3-Bromophenyl)amino]-3-cyano-7-methoxy-6-quinolinyl} -4-chloro-2-butenamide], the IC50 with SW620 (setting [5]) stood at 0.2 mg/L (≈ 0.424 µM); in the assay on A431 (setting [6]) it was 0.04 mg/L (≈ 0.0848 µM); with SKBR3 (setting [7]), 0.2 mg/L (≈ 0.424 µM); in assay [1] (setting [4]) it was 40 nM.

Consider `COc1cc2ncc(C#N)c(Nc3ccc(Cl)cc3F)c2cc1N` [Example 360, 6-Amino-4[(4-Chloro-2-fluorophenyl)amino]-7-methoxy-3-quinolinecarbonitrile], for which the IC50 in assay [1] (setting [4]) stood at 500 nM.

As for `C=CC(=O)Nc1ccc2ncc(C#N)c(Nc3ccc(Br)c(Br)c3)c2c1` [Example 380, N-[3-Cyano-4-(3,4-dibromophenylamino)quinolin-6-yl]acrylamide], the IC50 in assay [2] is above 100000 nM; in assay [1] (setting [4]) it was 7 nM.

For `C=C(C)C(=O)Nc1ccc2ncc(C#N)c(Nc3cccc(Br)c3)c2c1` [Example 383, N-[4-(3-Bromophenylamino)-3-cyanoquinolin-6-yl]-2-methylacrylamide], the IC50 is above 100000 nM in assay [2] and 7 nM in assay [1] (setting [4]).

Regarding `CN(C)c1ccc2ncc(C#N)c(Nc3cccc(Br)c3)c2c1` [Example 395, 4-(3-Bromophenylamino)-6-dimethylaminoquinoline-3-carbonitrile Hydrochloride], the IC50 in assay [2] was determined as 15000 nM; in assay [1] (setting [4]), 500 nM.

The values above are taken from patent EP0973746B1, “SUBSTITUTED 3-CYANO QUINOLINES” (Wyeth Holdings Corporation, priority 1997, dated 1998).
